Results on 13 compounds are retold here after ChEMBL document CHEMBL1201862, “PubChem BioAssay data set” (2004).

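Cells were grown in 96-well plates and exposed to each compound for 48 hours at five concentrations; endpoints were interpolated linearly between bracketing concentrations, or set to the highest concentration if not reached. The concentration for 50% growth inhibition is given as GI50.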 Activity calls are given as the source filed them. No stated cut-off is given here; in the data, active = GI50 up to about 1.1 µM and inactive = higher.

As a reminder, the GI50 is the concentration at which growth is held to half of that of the control.

Holding throughout (assay): DTP human tumour cell line panel, 48 h
Assay [1] relates to CCRF-CEM.
Assay [2] concerns COLO 205.
For assay [3], the system named is HT-29.
Assay [4] concerns IGROV-1.
For assay [5], the system named is KM12.
The test system of assay [6] is MCF7.
The test system of assay [7] is MDA-N.
The subject of assay [8] is NCI-H226.
Assay [9] concerns NCI-H460.
The subject of assay [10] is NCI-H522.
In assay [11] the test system is OVCAR-5.
The test system of assay [12] is SF-268.
The test system of assay [13] is SK-OV-3.
Assay [14] deals with T47D.
In assay [15] the test system is UACC-62.
Assay [16] concerns MDA-MB-231.
The subject of assay [17] is SN12C.

Turning to `O=C1Nc2ccccc2C1Cc1ccccc1` (stereo not drawn), the GI50 in [1], in [2], in assay [3], in assay [4], in assay [5] and in assay [6] was > 100 µM (inactive) throughout. For the same compound, the GI50 in assay [7], in [8], in assay [9], in assay [10], in assay [11] and in assay [12] was > 100 µM (inactive) in each case. Moreover, the GI50 in assay [13] is > 100 µM (inactive); in assay [14] it was 88.7 µM (inactive); in assay [15], > 100 µM (inactive).
Take `CC1C2(C)OC(=N)C(C#N)(C(C)O2)C1(C#N)C#N` (stereo not drawn): the GI50 is 16 µM (inactive) in assay [1]; 12.1 µM (inactive) in assay [2]; 28.2 µM (inactive) in [3]; 39.5 µM (inactive) in assay [4]; 49.8 µM (inactive) in assay [5]; 24.8 µM (inactive) in [6]. Moreover, the GI50 in [16] was 19.9 µM (inactive); in [7], 18.6 µM (inactive); in assay [8] it was > 100 µM (inactive); in [9], 19.6 µM (inactive); in assay [11], 30.5 µM (inactive); in assay [12], 30.8 µM (inactive). Moreover, the GI50 is > 100 µM (inactive) in [13], 16.3 µM (inactive) in assay [17], 30.1 µM (inactive) in assay [14] and 19.8 µM (inactive) in assay [15].
As for `COc1ccc2oc(=O)c(-c3csc(C)n3)cc2c1`, the GI50 in [1] was > 100 µM (inactive); in assay [2], > 100 µM (inactive); in [3], > 100 µM (inactive); in [4] it was 49.4 µM (inactive); in [5], > 100 µM (inactive); in assay [6], > 100 µM (inactive). For the same compound, the GI50 in assay [16] was 24.7 µM (inactive); in assay [8], 29.2 µM (inactive); in assay [9] it was > 100 µM (inactive); in assay [11] it was > 100 µM (inactive); in assay [12], 21.6 µM (inactive); in assay [13] it was 28.1 µM (inactive). In addition, the values for the GI50 in assay [17] and in assay [15] were > 100 µM (inactive) and 22.9 µM (inactive), respectively.
In the case of `COc1ccc(/C=C2/CCS(=O)(=O)c3ccc(C)cc3C2=O)cc1OC`, the GI50 is 8.75 µM (inactive) in [1]; 14.2 µM (inactive) in [2]; 13.9 µM (inactive) in [3]; 6.4 µM (inactive) in [4]; 11 µM (inactive) in [5]; 8.38 µM (inactive) in assay [6]. Besides, the GI50 in assay [16] is 12.8 µM (inactive); in assay [7], 11.9 µM (inactive); in [8], 14.3 µM (inactive); in [9], 7.74 µM (inactive); in [11], 27.5 µM (inactive); in assay [12], 20.5 µM (inactive). In addition, the GI50 in assay [13] is 21.6 µM (inactive); in assay [17], 13.2 µM (inactive); in [14], 13.2 µM (inactive); in assay [15], 5.97 µM (inactive).
For the compound `CCN(CC)CCNc1c(OC)cc(C)c2sc3ccccc3c(=O)c12`, the GI50 in assay [2] was 2.06 µM (inactive); in assay [3], 2.61 µM (inactive); in assay [4] it was 7.69 µM (inactive); in assay [5] it was 5.41 µM (inactive); in assay [6], 4.44 µM (inactive); in assay [16], 2.74 µM (inactive). Moreover, the GI50 is 3.4 µM (inactive) in assay [8]; 4.5 µM (inactive) in [9]; 5.33 µM (inactive) in assay [10]; 3.72 µM (inactive) in assay [11]; 11 µM (inactive) in [12]; 13.9 µM (inactive) in [13]. Further, the figures for the GI50 in [17], in assay [14] and in assay [15] were 2.79 µM (inactive), 11.4 µM (inactive) and 1.79 µM (inactive), respectively.
As for `CC(C)CC(C#CCCOC(=O)c1ccccc1)OC(=O)c1ccccc1` (stereo not drawn), the GI50 in [1], in assay [3], in [4], in [5], in assay [6] and in assay [16] was > 10 µM (inactive) in each case. Also, the GI50 in assay [7], in assay [8], in assay [9], in assay [11], in assay [12] and in assay [13] was > 10 µM (inactive) throughout. Also, the GI50 in [17], in [14] and in assay [15] was > 10 µM (inactive) throughout.
`Cc1ccc(S(=O)(=O)N(CC(O)COc2ccccc2)c2c(F)c(F)c(F)c(F)c2F)cc1` (stereo not drawn): the GI50 in assay [1] was < 0.01 µM (active); in assay [2], 16.3 µM (inactive); in assay [3], 16.2 µM (inactive); in assay [5] it was 20.7 µM (inactive); in [6], 10.5 µM (inactive); in [16], 12.8 µM (inactive). The GI50 in assay [7] was 15.6 µM (inactive); in [8] it was 17.9 µM (inactive); in assay [9], 14.4 µM (inactive); in [11] it was 18.3 µM (inactive); in assay [12], 14.5 µM (inactive); in [13] it was 19.9 µM (inactive). In addition, the GI50 in [17] was 16.6 µM (inactive); in assay [14] it was 18 µM (inactive); in [15], 13.7 µM (inactive).
As for `CCOc1ccc2ccccc2c1NC1=NCCO1`, the GI50 is 39.1 µM (inactive) in [1]; 36.6 µM (inactive) in [2]; 30.3 µM (inactive) in assay [3]; 33.9 µM (inactive) in assay [4]; 24.9 µM (inactive) in assay [5]; 37.8 µM (inactive) in assay [6]. Also, the GI50 in assay [16] was > 100 µM (inactive); in assay [8], 25.7 µM (inactive); in assay [9] it was 12.7 µM (inactive); in assay [11], > 100 µM (inactive); in [12] it was > 100 µM (inactive); in assay [13], 39.5 µM (inactive). Also, the values for the GI50 in [17], in assay [14] and in assay [15] were > 100 µM (inactive), 29.7 µM (inactive) and 39.4 µM (inactive), respectively.
Take `CO[C@]12C[C@@H](CNC(=O)c3cc(Br)c[nH]3)O[C@H]1NC(=O)N2`: the GI50 in assay [1], in assay [2], in assay [3], in assay [4], in assay [5] and in assay [6] was > 100 µM (inactive) each time. For the same compound, the GI50 in assay [16], in [8], in assay [9], in assay [10], in assay [11] and in [12] was > 100 µM (inactive) in each case. For the same compound, the GI50 in assay [13], in assay [17], in assay [14] and in assay [15] was > 100 µM (inactive) throughout.
Consider `CCN(CC)c1c(C(C)(C)C)c(=O)n2ccsc2c1OC(C)=O`, for which the GI50 was 49 µM (inactive) in assay [1]; 16.9 µM (inactive) in [2]; 14.8 µM (inactive) in assay [3]; 16.8 µM (inactive) in assay [4]; 15.5 µM (inactive) in assay [5]; 15.6 µM (inactive) in [6]. The GI50 is 17.8 µM (inactive) in assay [16]; 18.6 µM (inactive) in [7]; 15.4 µM (inactive) in [8]; 16.5 µM (inactive) in assay [9]; 13.4 µM (inactive) in [10]; 15.8 µM (inactive) in assay [11]. The GI50 in [12] was 15.2 µM (inactive); in assay [13], 18.2 µM (inactive); in assay [17], 18.2 µM (inactive); in [15], 16.9 µM (inactive).
As to `COc1nc(N)nc2c1ncn2C1CC(O)C(CO)O1` (stereo not drawn), the GI50 in assay [1], in assay [2], in assay [3], in [4], in assay [5] and in assay [6] was > 100 µM (inactive) in each case. For the same compound, the GI50 in assay [16], in assay [8], in [9], in assay [10], in assay [11] and in assay [12] was > 100 µM (inactive) each time. Further, the GI50 in [13], in [17], in assay [14] and in [15] was > 100 µM (inactive) in each case.
For the compound `N=C(N)c1ccc(/N=N/c2c(O)ccc3cc(O)ccc23)cc1`, the GI50 in assay [1], in assay [2], in assay [3], in assay [4], in assay [5] and in assay [6] was > 100 µM (inactive) throughout. The GI50 in [16], in assay [8], in assay [9], in [10], in [11] and in assay [12] was > 100 µM (inactive) in each case. Further, the GI50 in assay [13] and in [15] was > 100 µM (inactive) throughout.
Turning to `O=S(=O)(O)c1cccc2c(/N=N/c3c(O)ccc4ccccc34)cccc12`, the GI50 in assay [1], in assay [2], in assay [3], in [4], in [5] and in assay [16] was > 100 µM (inactive) throughout. In addition, the GI50 in assay [7], in assay [8], in [10], in assay [11], in assay [12] and in assay [13] was > 100 µM (inactive) in each case. Also, the GI50 in [17], in assay [14] and in [15] was > 100 µM (inactive) throughout.
